This note sets out measurements from patent EP4810494A1, “HPK1 DEGRADATION AGENT AND USE THEREOF IN FIELD OF MEDICINE” (Haisco Pharmaceutical Group Co., Ltd., priority 2023, dated 2025).

Structures are written as SMILES. Structures can show the parent of a compound that is named as a salt. Where two headings read alike, the source gives them in different places.

In one series the target is T1, HPK1 protein (Homo sapiens, UniProt Q92918).
T1 construct: host or cells: Jurkat cells
Put plainly: Detection of HPK1 protein expression level in Jurkat cells (24 h). It counts as cell-based. The note with it: 24 hours incubation. The method, then: Test example 4: Detection of HPK1 protein expression level in Jurkat cells (24 h)
Jurkat cells from ATCC were placed in a RPMI-1640 complete medium (supplemented with 10% FBS and 1% penicillin-streptomycin solution) and cultured at 37°C and 5% CO2. The cells in the logarithmic growth phase were collected, the cell density was adjusted to 5 × 10^5 cells/well with the culture medium, and the cells were added to a 6-well cell culture plate at a volume of 1 mL/well. The compound to be tested was prepared to 2-fold the final concentration, 1 mL of the compounds at different concentrations were added to administration wells, a medium containing 0.2% DMSO was added to control wells, and the plate was incubated at 37°C and 5% CO2 for 24 hours. The cells were collected into a 1.5 mL centrifuge tube, 30 µL of RIPA lysis buffer (containing 1X protease inhibitor cocktail) was added, and the cells were lysed on ice for 15 minutes and centrifuged at 12000 rpm/min at 4°C for 10 minutes. The supernatant was collected and the protein content was determined using the BCA method. The protein sample to be tested was diluted to 0.2 mg/mL, HPK1 was detected using a fully automated protein expression quantitative analyser (ProteinSimple), and the internal reference protein was β-actin (all antibodies were from CST). The software (Compass for SW) of the fully automated protein expression quantitative analyser was used to process the raw data and calculate the peak area after internal reference normalisation and the HPK1 degradation rate relative to the control group. The HPK1 degradation rate was calculated according to formula 4-1, where Aadministration well is the relative peak area of the administration group after internal reference normalisation, and Acontrol well is the relative peak area of the vehicle control group after internal reference normalisation. DC50 values were calculated using a four-parameter non-linear fitting model in Graphpad 8.3.0 software. HPK1_degradation % = 100−(Aadministration well/Acontrol well×100%) [formula] Table 4-1 Degradation activity of test compounds against HPK1 protein in Jurkat cells (24 h)

Another series addresses T2, HPK1 kinase (Homo sapiens, UniProt Q92918).
T2 construct: purchased Carna 07-410
T2 sequence (Q92918 1-346 limits assumed): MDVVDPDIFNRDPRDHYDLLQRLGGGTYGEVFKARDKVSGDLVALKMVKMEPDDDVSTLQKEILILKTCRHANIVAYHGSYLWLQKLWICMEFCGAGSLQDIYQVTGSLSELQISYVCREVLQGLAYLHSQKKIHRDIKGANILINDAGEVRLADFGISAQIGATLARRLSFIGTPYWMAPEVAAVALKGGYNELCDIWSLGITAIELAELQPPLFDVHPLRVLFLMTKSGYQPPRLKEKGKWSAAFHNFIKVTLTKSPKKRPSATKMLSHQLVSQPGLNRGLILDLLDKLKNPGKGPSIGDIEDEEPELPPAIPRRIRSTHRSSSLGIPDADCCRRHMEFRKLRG
Put plainly: HPK1 kinase assay (1 mM ATP). It counts as biochemical. On the procedure: Test example 5: HPK1 kinase assay (1 mM ATP)
The kinase HPK1 (Carna, Cat.No 07-410) was prepared into 2× kinase solution using 1× kinase buffer. The substrate Fluorescein-PKC (Invitrogen, Cat. No. PV3506) and ATP (working concentration: 1 mM) (Sigma, Cat. No. 2383-5G) were prepared into 2× substrate solution using 1×kinase buffer. The detection reagent was diluted to 2-fold the final concentration using an antibody diluent. 100 nL of compounds at different concentrations and 5 µL of kinase solution were added to each well of a 384-well plate, and the mixture was incubated at room temperature for 10 minutes. After the incubation was completed, 5 µL of substrate solution was added to each well, and the resulting mixture was reacted at room temperature for 90 minutes. After the reaction was completed, 10 µL of detection reagent was added to each well to terminate the reaction, and the mixture was incubated at room temperature for 60 minutes. Fluorescence readings were detected using an Envision instrument with excitation at 320 nm and emission at 520 nm and 495 nm. IC50 value was calculated using XLFit excel add-in version 5.4.0.8 software. The calculation formula of the inhibition rate was shown in formula 5-1, wherein max is the Ratio of the DMSO control, min is the Ratio of the negative control without enzyme, and sample is the Ratio of the compound. Ratio = RFU520nm /RFU495nm [formula] Inhibition% = (max−sample)/(max−min) × 100% [formula] Table 5-1 Inhibitory activity of test compounds against HPK1 kinase

Series [1] in a line: Pharmacokinetic test in mice. It is filed as in vivo, ICR mice. As to conditions: mouse, plasma, po, i. g., 10 mg/kg. The method, then:
Test example 6: Pharmacokinetic test in mice
Experimental objective: In this experiment, a single dose of test substances was administered to ICR mice intravenously and intragastrically, the concentrations of the test compounds in plasma of mice were measured, and the pharmacokinetic characteristics and bioavailability of the test compounds in mice were evaluated.
Experimental animals: Male ICR mice, 20-35 g, purchased from Chengdu Dossy Experimental Animals Co., Ltd. (SCXK (CHUAN) 2020-030).
Experimental method: On the day of the experiment, the ICR mice were randomly grouped according to their body weights. The animals were fasted but with water available overnight before the administration, and fed 4 h after the administration.
Sampling: Blood was taken from the orbits of the mice at specified time points, and placed in an EDTAK2 centrifuge tube. Centrifugation was performed at 5000 rpm at 4°C for 10 min, and the plasma was collected.
Time points for plasma collection in G1 and G1-2 groups: 0, 5 min, 15 min, 30 min, 1 h, 2 h, 4 h, 7 h, and 24 h.
Time points for plasma collection in G2 and G2-2 groups: 0, 5 min, 15 min, 30 min, 1 h, 2 h, 4 h, 7 h, and 24 h.
Before analysis and detection, all the samples were stored at -60°C or lower. The samples were analysed quantitatively by LC-MS/MS. Table 6-1 PK data of test compound drug in mice

Series [2] is described as follows: Pharmacokinetic test in rats. It counts as in vivo, SD rats. The note with it: rat, plasma. The method, then:
Test example 7: Pharmacokinetic test in rats
Experimental animals: Male SD rats, 180-200 g, purchased from Chengdu Dossy Experimental Animals Co., Ltd. with the laboratory animal production license number of SCXK (CHUAN) 2020-030.
Experimental design: on the day of the experiment, the SD rats were randomly grouped according to their body weights. The animals were fasted but with water available overnight before the administration, and fed 4 h after the administration.
Vehicle for intragastric administration: 5% Solutol+5% TPGS+30% PEG400+60% (20% SBE-β-CD)
Blood was taken from the orbits of the […] at specified time points, and placed in an EDTAK2 centrifuge tube. Centrifugation was performed at 5000 rpm for 10 min, and the plasma was collected.
Blood sampling time points for the intravenous administration group were: 0, 5 min, 15 min, 30 min, 1 h, 2 h, 4 h, 6 h, 8 h and 24 h; blood sampling time points for the intragastric administration group were: 0, 5 min, 15 min, 30 min, 1 h, 2 h, 4 h, 6 h, 8 h and 24 h. Before analysis and detection, all the samples were stored at - 60°C or lower. The samples were analysed quantitatively by LC-MS/MS. Table 7-1 PK data of test compound drug in rats

Series [3] relates to IL-2 secretion by T cells. Put plainly: IL-2 detection assay in cells (ELISA, pan-T cells isolated from PBMCs). The note with it: IL-2, CD3 antibody-coated plate, 24 hours; 100 nM. It is filed as cell-based. On the procedure: 9. IL-2 detection assay in cells
Activating effect of compounds on IL-2 secretion by T cells was evaluated using the ELISA method. Frozen PBMCs were thawed, and pan-T cells were isolated and purified using a T cell sorting kit (Stemcell, 17951). The cells were resuspended in 1640 complete medium and incubated in a 37°C&5%CO2 incubator overnight. A 96-well plate coated with an anti-human CD3 antibody (Thermo, 16-0037-38) at a final concentration of 5 µg/mL was incubated at 37°C for 2 h. The overnight-cultured cells were collected by centrifugation, the supernatant was discarded, and the cells were resuspended in 1640 complete medium, and seeded in the CD3 antibody-coated 96-well plate at a density of 10^5cells/well. The compounds at different concentrations were added, and the mixture was incubated in a 37°C&5%CO2 incubator for 24 hours. After the incubation was completed, the resulting mixture was centrifuged at 1000 rpm for 1 minute to collect the supernatant, and IL-2 was detected according to the ELISA instructions. DMSO without compounds was used as the control group to calculate the activation rate of the compounds, and prism was used to fit the activation curve. Maximum activation fold = maximum activation rate/control group. Table 9-1 Results of IL-2 activation by test compounds

Setting [4] is: ATP working concentration: 1 mM.
[5] abbreviates: ATP working concentration: 1 mM, read-out: IC50.

T1 sequence (Q92918 whole entry): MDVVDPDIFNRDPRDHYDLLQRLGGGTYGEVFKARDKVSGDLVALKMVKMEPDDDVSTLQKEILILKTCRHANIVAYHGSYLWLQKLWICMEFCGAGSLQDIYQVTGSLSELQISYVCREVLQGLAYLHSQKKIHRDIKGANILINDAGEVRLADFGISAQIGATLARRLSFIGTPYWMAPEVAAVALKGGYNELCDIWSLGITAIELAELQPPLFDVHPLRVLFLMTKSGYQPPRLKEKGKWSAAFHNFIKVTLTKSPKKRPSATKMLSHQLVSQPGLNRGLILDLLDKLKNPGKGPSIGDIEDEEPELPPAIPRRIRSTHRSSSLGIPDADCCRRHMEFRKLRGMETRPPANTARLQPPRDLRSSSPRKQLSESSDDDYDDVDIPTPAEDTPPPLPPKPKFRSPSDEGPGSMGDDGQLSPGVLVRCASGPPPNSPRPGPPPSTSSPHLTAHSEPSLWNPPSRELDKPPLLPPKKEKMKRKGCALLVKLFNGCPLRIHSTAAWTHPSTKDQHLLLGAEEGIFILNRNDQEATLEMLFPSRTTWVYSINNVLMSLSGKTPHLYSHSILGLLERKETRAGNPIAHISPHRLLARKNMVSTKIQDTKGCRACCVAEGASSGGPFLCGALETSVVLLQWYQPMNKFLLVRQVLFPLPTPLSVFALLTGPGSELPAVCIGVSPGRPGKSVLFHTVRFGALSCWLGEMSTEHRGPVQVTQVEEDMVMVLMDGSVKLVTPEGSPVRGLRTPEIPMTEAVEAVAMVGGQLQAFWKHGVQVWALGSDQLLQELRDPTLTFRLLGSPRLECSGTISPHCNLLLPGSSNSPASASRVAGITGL

In general, IC50 refers to the concentration that gives 50% inhibition. The term AUC denotes the area under the concentration-time curve, a measure of exposure. What is called Cmax is the peak of the concentration-time curve. The half-life is the time needed for the level to fall by half in the phase considered. Lower therefore signals rapid decline. For the molecule `O=C1CCN(c2cc3c(cc2F)N2CCN(CC4CC5(CCN(c6ccc(Nc7ccc(-c8cnc9cc(F)ccn89)c8c7C(=O)NC8)nc6)CC5)C4)C[C@@H]2CC3)C(=O)N1` [Trifluoroacetic acid salt of compound 15], the DC50 on HPK1 protein was under 20 nM. This molecule also returned an IC50 against HPK1 kinase (setting [4]) of under 50 nM. In series [1], this molecule gave an AUC of 23600 ng·h/mL, a Cmax of 1620 ng/mL and a half-life of 7.64 h.

For `O=C1CCN(c2cc3c(cc2F)N2CCN(CC4CC5(CCN(c6ccc(Nc7ccc(-c8cnc9cc(F)ccn89)c8c7C(=O)NC8)nc6)CC5)C4)C[C@H]2CC3)C(=O)N1` [Compound 16], at HPK1 protein (read-out: DC50), the DC50 was under 20 nM. At HPK1 kinase (setting [5]), the IC50 is under 50 nM.

As a reminder, the clearance is the volume of plasma or blood freed of the substance per unit of time. `O=C1CCN(c2cc3c(cc2F)N2CCN(C4CC5(CCN(c6ccc(Nc7ccc(-c8cnc9cc(F)ccn89)c8c7C(=O)NC8)nc6)CC5)C4)C[C@@H]2CC3)C(=O)N1` [Trifluoroacetic acid salt of compound 20] returned a DC50 at HPK1 protein of under 20 nM. In series [2] (IV, 2.5 mg/kg), the clearance came out at 13.4 mL/min/kg and the half-life is 4.78 h. In series [2] (po, i. g., 10 mg/kg), this molecule gave an AUC of 5310 ng·h/mL, a Cmax of 382 ng/mL and a half-life of 5.29 h. The same molecule came in with an IC50 on HPK1 kinase of under 50 nM. In series [1], this molecule gave an AUC of 12600 ng·h/mL, a Cmax of 1010 ng/mL and a half-life of 5.51 h.

The molecule `O=C1CC[C@H](NC(=O)c2cc3c(cc2F)N2CCN(CC4CC5(CCN(c6ccc(Nc7ccc(-c8cnc9cc(F)ccn89)c8c7C(=O)NC8)nc6)CC5)C4)C[C@H]2CC3)C(=O)N1` [Trifluoroacetic acid salt of compound 36] displayed a DC50 on HPK1 protein of under 20 nM. Further, the IC50 against HPK1 kinase (setting [4]) is under 50 nM.

On HPK1 protein, `O=C1CC[C@H](NC(=O)c2cc3c(cc2F)N2CCN(C4CC5(CCN(c6ccc(Nc7ccc(-c8cnc9cc(F)ccn89)c8c7C(=O)NC8)nc6)CC5)C4)C[C@H]2CC3)C(=O)N1` [Trifluoroacetic acid salt of compound 37] returned a DC50 of under 20 nM. Moreover, at HPK1 kinase (setting [4]), the IC50 is under 50 nM.

For the molecule `O=C1CC[C@H](NC(=O)c2cc3c(cc2F)N2CCN(CC4CC5(CCN(c6ccc(Nc7ccc(-c8cnc9cc(F)ccn89)c8c7C(=O)NC8)nc6)CC5)C4)C[C@@H]2CC3)C(=O)N1` [Trifluoroacetic acid salt of compound 34], the DC50 at HPK1 protein was under 20 nM. For the same molecule, the concentration for half-maximal inhibition (IC50) on HPK1 kinase (setting [4]) is under 50 nM.

Consider `O=C1CCN(c2cc3c(cc2F)N2CCN(C4CCN(c5ccc(Nc6ccc(-c7cnc8cc(F)ccn78)c7c6C(=O)NC7)nc5)CC4)C[C@@H]2CC3)C(=O)N1` [Trifluoroacetic acid salt of compound 13], for which the DC50 on HPK1 protein is under 20 nM. Further, the IC50 against HPK1 kinase was under 50 nM.

As to `O=C1CC[C@H](NC(=O)c2cc3c(cc2F)N2CCN(CC4CCN(c5ccc(Nc6ccc(-c7cnc8cc(F)ccn78)c7c6C(=O)NC7)nc5)CC4)C[C@H]2CC3)C(=O)N1` [Trifluoroacetic acid salt of compound 8], the DC50 on HPK1 protein is under 20 nM. Moreover, the IC50 against HPK1 kinase (setting [4]) is under 50 nM. In series [1], the AUC worked out at 18300 ng·h/mL, the peak level (Cmax) was 1460 ng/mL and the half-life was 4.38 h.

For the molecule `O=C1CCC(c2ccc(N3CCN(CC4CCN(c5ccc(Nc6ccc(-c7cnc8cc(F)ccn78)c7c6C(=O)NC7)nc5)CC4)CC3)cc2F)C(=O)N1` (single isomer, unassigned) [Compound 1-1], on HPK1 kinase (setting [5]), the IC50 is under 50 nM. The “Activation fold at 100 nM concentration” value in series [3] is listed as over 10.

Consider `O=C1CCN(c2cc3c(cc2F)N2CCN(C4CCN(c5ccc(Nc6ccc(-c7cnc8cc(F)ccn78)c7c6C(=O)NC7)nc5)CC4)C[C@H]2CC3)C(=O)N1` [Trifluoroacetic acid salt of compound 14], for which the DC50 at HPK1 protein was under 20 nM. The molecule further returned an IC50 at HPK1 kinase of under 50 nM.

Consider `O=C1CC[C@H](NC(=O)c2cc3c(cc2F)N2CCN(C4CCN(c5ccc(Nc6ccc(-c7cnc8cc(F)ccn78)c7c6C(=O)NC7)nc5)CC4)C[C@H]2CC3)C(=O)N1` [Trifluoroacetic acid salt of compound 42], for which, at HPK1 protein, the DC50 was under 20 nM. In addition, the IC50 against HPK1 kinase is under 50 nM.
